Target: T1, human macrophage elastase (HME/hMMP-12) (Homo sapiens, UniProt P39900)
T1 construct: purchased R&D Systems 917-MP
Test: In vitro HME inhibition test (standard or high-sensitivity)
Assay type: biochemical
Conditions: in some cases mean values, rounded to two significant figures
Procedure: The potency of the compounds according to the invention with respect to HME (MMP-12) is determined in an in vitro inhibition test. The HME-mediated amidolytic cleavage of a suitable peptide substrate leads to an increase in fluorescent light therein. The signal intensity of the fluorescent light is directly proportional to the enzyme activity. The active concentration of a test compound at which half the enzyme is inhibited (50% signal intensity of the fluorescent light) is reported as the IC50 value.
In a 384 hole microtiter plate, in a total test volume of 41 μl, the test buffer (0.1 M HEPES pH 7.4, 0.15 M NaCl, 0.03 M CaCl2, 0.004 mM ZnCl2, 0.02 M EDTA, 0.005% Brij®), the enzyme (0.5 nM HME; R&D Systems, 917-MP, autocatalytic activation according to the manufacturer's instructions) and the intramolecularly quenched substrate [5 μM Mca-Pro-Leu-Gly-Leu-Glu-Glu-Ala-Dap(Dnp)-NH2; Bachem, M-2670] are incubated in the absence and presence of the test substance (as a solution in DMSO) at 37° C. for two hours. The fluorescence intensity of the test mixtures is measured (excitation […], emission 393 nm). The IC50 values are ascertained by plotting the fluorescent light intensity against the active ingredient concentration.
In this case, an enzyme concentration ten times lower is used (final concentration, e.g. 0.05 nM) in order to achieve an increased test sensitivity. The incubation period chosen for the test is correspondingly longer (e.g. 16 hours).

T1 sequence (P39900 106-470): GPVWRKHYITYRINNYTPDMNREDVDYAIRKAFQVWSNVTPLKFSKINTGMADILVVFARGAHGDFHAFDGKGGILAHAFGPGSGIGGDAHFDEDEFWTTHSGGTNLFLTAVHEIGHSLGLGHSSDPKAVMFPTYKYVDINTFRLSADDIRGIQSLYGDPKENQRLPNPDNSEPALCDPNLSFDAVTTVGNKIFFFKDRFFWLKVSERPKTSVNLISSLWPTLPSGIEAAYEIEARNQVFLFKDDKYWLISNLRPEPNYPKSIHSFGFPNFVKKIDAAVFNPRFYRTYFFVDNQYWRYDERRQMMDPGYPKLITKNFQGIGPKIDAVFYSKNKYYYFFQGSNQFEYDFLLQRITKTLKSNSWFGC

IC50	Compound
4 nM	O=C(CC(CCn1nnc2ccccc2c1=O)C(=O)O)c1cc2ccc(OCc3ccc(F)cc3)cc2s1 (racemic) [Example 125, (+/−)-4-{6-[(4-Fluorobenzyl)oxy]-1-benzothiophen-2-yl}-4-oxo-2-[2-(4-oxo-1,2,3-benzotriazin-3(4H)-yl)ethyl]butanoic acid]
2.8 nM	CCOc1ccc2cc(C(=O)CC(CCn3nnc4ccccc4c3=O)C(=O)O)sc2c1 (racemic) [Example 127, (+/−)-4-(6-Ethoxy-1-benzothiophen-2-yl)-4-oxo-2-[2-(4-oxo-1,2,3-benzotriazin-3(4H)-yl)ethyl]butanoic acid]
1.1 nM	O=C(CC(CCn1nnc2ccc(C(F)(F)F)cc2c1=O)C(=O)O)c1cc2ccc(OCC3CC3)cc2s1 (racemic) [Example 128, (+/−)-4-[6-(Cyclopropylmethoxy)-1-benzothiophen-2-yl]-4-oxo-2-{2-[4-oxo-6-(trifluoromethyl)-1,2,3-benzotriazin-3(4H)-yl]ethyl}butanoic acid]
1.2 nM	COc1ccc2cc(C(=O)CC(CCn3nnc4ccc(C(F)(F)F)cc4c3=O)C(=O)O)sc2c1 (racemic) [Example 131, (+/−)-4-(6-Methoxy-1-benzothiophen-2-yl)-4-oxo-2-{2-[4-oxo-6-(trifluoromethyl)-1,2,3-benzotriazin-3(4H)-yl]ethyl}butanoic acid]
0.51 nM	CCCOc1ccc2cc(C(=O)CC(CCn3nnc4ccc(C(F)(F)F)cc4c3=O)C(=O)O)sc2c1 (racemic) [Example 132, (+/−)-4-Oxo-2-{2-[4-oxo-6-(trifluoromethyl)-1,2,3-benzotriazin-3(4H)-yl]ethyl}-4-(6-propoxy-1-benzothiophen-2-yl)butanoic acid]
0.58 nM	NC(=O)c1cccc(COc2ccc3c(C(=O)CC(CCn4nnc5ccccc5c4=O)C(=O)O)noc3c2)c1 (racemic) [Example 139, (+/−)-4-{6-[(3-Carbamoylbenzyl)oxy]-1,2-benzoxazol-3-yl}-4-oxo-2-[2-(4-oxo-1,2,3-benzotriazin-3(4H)-yl)ethyl]butanoic acid]
0.12 nM	O=C(CC(CCn1nnc2ccccc2c1=O)C(=O)O)c1noc2cc(OCCC3CCCCC3)ccc12 (racemic) [Example 141, (+/−)-4-[6-(2-Cyclohexylethoxy)-1,2-benzoxazol-3-yl]-4-oxo-2-[2-(4-oxo-1,2,3-benzotriazin-3(4H)-yl)ethyl]butanoic acid]
1.1 nM	O=C(CC(CCn1nnc2ccccc2c1=O)C(=O)O)c1noc2cc(OCc3cccc(Cl)c3)ccc12 (racemic) [Example 146, (+/−)-4-{6-[(3-Chlorobenzyl)oxy]-1,2-benzoxazol-3-yl}-4-oxo-2-[2-(4-oxo-1,2,3-benzotriazin-3(4H)-yl)ethyl]butanoic acid]
1.7 nM	O=C(CC(CCn1nnc2ccccc2c1=O)C(=O)O)c1noc2cc(OCc3ccc(Cl)cc3)ccc12 (racemic) [Example 147, (+/−)-4-{6-[(4-Chlorobenzyl)oxy]-1,2-benzoxazol-3-yl}-4-oxo-2-[2-(4-oxo-1,2,3-benzotriazin-3(4H)-yl)ethyl]butanoic acid]
0.58 nM	O=C(CC(CCn1nnc2ccccc2c1=O)C(=O)O)c1noc2cc(OCCC3CCOCC3)ccc12 (racemic) [Example 149, (+/−)-4-Oxo-2-[2-(4-oxo-1,2,3-benzotriazin-3(4H)-yl)ethyl]-4-{6-[2-(tetrahydro-2H-pyran-4-yl)ethoxy]-1,2-benzoxazol-3-yl}butanoic acid]
0.27 nM	O=C(CC(CCn1nnc2ccccc2c1=O)C(=O)O)c1noc2cc(OCCC3CCCC3)ccc12 (racemic) [Example 151, (+/−)-4-[6-(2-Cyclopentylethoxy)-1,2-benzoxazol-3-yl]-4-oxo-2-[2-(4-oxo-1,2,3-benzotriazin-3(4H)-yl)ethyl]butanoic acid]
1.4 nM	O=C(CC(CCn1nnc2ccccc2c1=O)C(=O)O)c1noc2cc(OCC3CCCC3)ccc12 (racemic) [Example 152, (+/−)-4-[6-(Cyclopentylmethoxy)-1,2-benzoxazol-3-yl]-4-oxo-2-[2-(4-oxo-1,2,3-benzotriazin-3(4H)-yl)ethyl]butanoic acid]
980 nM	CCCOc1ccc2cc(C(=O)CC(CCn3nnc4ccccc4c3=O)C(=O)O)oc2c1 (single isomer, unassigned) [Example 59, 4-Oxo-2-[2-(4-oxo-1,2,3-benzotriazin-3(4H)-yl)ethyl]-4-(6-propoxy-1-benzofur-2-yl)butanoic acid]
1.8 nM	CCCOc1ccc2cc(C(=O)CC(CCn3nnc4ccccc4c3=O)C(=O)O)oc2c1 (single isomer, unassigned) [Example 60, 4-Oxo-2-[2-(4-oxo-1,2,3-benzotriazin-3(4H)-yl)ethyl]-4-(6-propoxy-1-benzofur-2-yl)butanoic acid]
81 nM	CCCCCOc1ccc2c(C(=O)CC(CCn3nnc4ccccc4c3=O)C(=O)O)coc2c1 (single isomer, unassigned) [Example 90, 4-Oxo-2-[2-(4-oxo-1,2,3-benzotriazin-3(4H)-yl)ethyl]-4-[6-(pentyloxy)-1-benzofur-3-yl]butanoic acid]
97 nM	O=C(CC(CCn1nnc2ccccc2c1=O)C(=O)O)c1coc2cc(OCc3ccc(Cl)c(Cl)c3)ccc12 (single isomer, unassigned) [Example 93, 4-{6-[(3,4-Dichlorobenzyl)oxy]-1-benzofur-3-yl}-4-oxo-2-[2-(4-oxo-1,2,3-benzotriazin-3(4H)-yl)ethyl]butanoic acid]
0.19 nM	O=C(CC(CCn1nnc2ccccc2c1=O)C(=O)O)c1cc2cc(OCc3ccc(Cl)c(Cl)c3)ccc2o1 (single isomer, unassigned; (+)) [Example 27, (+)-4-{5-[(3,4-Dichlorobenzyl)oxy]-1-benzofur-2-yl}-4-oxo-2-[2-(4-oxo-1,2,3-benzotriazin-3(4H)-yl)ethyl]butanoic acid]
2.4 nM	CCCCCCOc1ccc2cc(C(=O)CC(CCn3nnc4ccccc4c3=O)C(=O)O)oc2c1 (single isomer, unassigned; (+)) [Example 66, (+)-4-[6-(Hexyloxy)-1-benzofur-2-yl]-4-oxo-2-[2-(4-oxo-1,2,3-benzotriazin-3(4H)-yl)ethyl]butanoic acid]
0.38 nM	O=C(CC(CCn1nnc2ccccc2c1=O)C(=O)O)c1coc2cc(OCc3ccccc3)ccc12 (single isomer, unassigned; (+)) [Example 85, (+)-4-[6-(Benzyloxy)-1-benzofur-3-yl]-4-oxo-2-[2-(4-oxo-1,2,3-benzotriazin-3(4H)-yl)ethyl]butanoic acid]
1.1 nM	CCCOc1ccc2c(C(=O)CC(CCn3nnc4ccccc4c3=O)C(=O)O)coc2c1 (single isomer, unassigned; (+)) [Example 88, (+)-4-Oxo-2-[2-(4-oxo-1,2,3-benzotriazin-3(4H)-yl)ethyl]-4-(6-propoxy-1-benzofur-3-yl)butanoic acid]
0.81 nM	O=C(CC(CCn1nnc2ccccc2c1=O)C(=O)O)c1coc2cc(OCC3CCOCC3)ccc12 (single isomer, unassigned; (+)) [Example 96, (+)-4-Oxo-2-[2-(4-oxo-1,2,3-benzotriazin-3(4H)-yl)ethyl]-4-[6-(tetrahydro-2H-pyran-4-ylmethoxy)-1-benzofur-3-yl]butanoic acid]
860 nM	O=C(CC(CCn1nnc2ccccc2c1=O)C(=O)O)c1cc2cc(OCCc3ccccc3)ccc2o1 (single isomer, unassigned; (-)) [Example 20, (−)-4-Oxo-2-[2-(4-oxo-1,2,3-benzotriazin-3(4H)-yl)ethyl]-4-[5-(2-phenylethoxy)-1-benzofur-2-yl]butanoic acid]

Compound	IC50
CCCCOc1ccc2cc(C(=O)CC(CCn3nnc4ccccc4c3=O)C(=O)O)sc2c1 (racemic) [Example 126, (+/−)-4-(6-Butoxy-1-benzothiophen-2-yl)-4-oxo-2-[2-(4-oxo-1,2,3-benzotriazin-3(4H)-yl)ethyl]butanoic acid]	2.9 nM
CCCCOc1ccc2cc(C(=O)CC(CCn3nnc4ccccc4c3=O)C(=O)O)oc2c1 (single isomer, unassigned; (+)) [Example 63, (+)-4-(6-Butoxy-1-benzofur-2-yl)-4-oxo-2-[2-(4-oxo-1,2,3-benzotriazin-3(4H)-yl)ethyl]butanoic acid]	2.2 nM
CCCCCCCOc1ccc2c(C(=O)CC(CCn3nnc4ccccc4c3=O)C(=O)O)coc2c1 (single isomer, unassigned; (+)) [Example 103, (+)-4-[6-(Heptyloxy)-1-benzofur-3-yl]-4-oxo-2-[2-(4-oxo-1,2,3-benzotriazin-3(4H)-yl)ethyl]butanoic acid acid]	0.23 nM
CC(C)COc1ccc2c(C(=O)CC(CCn3nnc4ccccc4c3=O)C(=O)O)coc2c1 (single isomer, unassigned; (+)) [Example 105, (+)-4-(6-Isobutoxy-1-benzofur-3-yl)-4-oxo-2-[2-(4-oxo-1,2,3-benzotriazin-3(4H)-yl)ethyl]butanoic acid]	0.21 nM
CCCCOc1ccc2c(C(=O)CC(CCn3nnc4ccccc4c3=O)C(=O)O)coc2c1 (single isomer, unassigned; (+)) [Example 108, (+)-4-(6-Butoxy-1-benzofur-3-yl)-4-oxo-2-[2-(4-oxo-1,2,3-benzotriazin-3(4H)-yl)ethyl]butanoic acid]	0.23 nM
